Measurements reported in PMC4666006 (European journal of cancer (Oxford, England : 1990), 2013).

What was measured:
[1] = Pharmacokinetic assessments; type: in vivo, patients; conditions: for AUC(0-t) / Cmax / Tmax: human, serum
[2] = test system: patients with RCC; conditions: cited from earlier work
[3] = test system: patients with advanced renal cell cancer; conditions: ongoing randomised phase III trial; cited from earlier work
[4] = test system: patients with advanced RCC; test: Treatment-emergent adverse events; type: in vivo; conditions: all 27 patients
[5] = test system: patients with advanced RCC; test: 3 + 3 dose-escalation: dose-limiting toxicities and recommended phase II dose; type: in vivo
[6] = test system: patients with advanced RCC; conditions: phase III; cited from earlier work
[7] = test system: patients with advanced RCC; conditions: cited from earlier work
[8] = cited from earlier work

CO[C@H]1C[C@@H]2CC[C@@H](C)[C@@](O)(O2)C(=O)C(=O)N2CCCC[C@H]2C(=O)O[C@H]([C@H](C)C[C@@H]2CC[C@@H](O)[C@H](OC)C2)CC(=O)[C@H](C)/C=C(\C)[C@@H](O)[C@@H](OC)C(=O)[C@H](C)C[C@H](C)/C=C/C=C/C=C/1C [Sirolimus, sirolimus]
Ratio of sirolimus AUC0–last /temsirolimus AUC0–last, mean (SD) ([1]; day 22, Temsirolimus 15 mg/week): 1.26 (0.67) | Ratio of sirolimus AUC0–last /temsirolimus AUC0–last, mean (SD) ([1]; day 22, Temsirolimus 25 mg/week): 1.48 (0.66) | AUC(0-t) ([1]; intravenous, 15 mg/week): 3560 ng·h/mL | Cmax ([1]; intravenous, 15 mg/week): 51.3 ng/mL | Tmax ([1]; intravenous, 15 mg/week): 3.18 h | AUC(0-t) ([1]; intravenous, 25 mg/week): 6570 ng·h/mL | Cmax ([1]; intravenous, 25 mg/week): 93.8 ng/mL | Tmax ([1]; intravenous, 25 mg/week): 1.81 h

CNC(=O)c1ccccc1Sc1ccc2c(/C=C/c3ccccn3)n[nH]c2c1 [axitinib]
Grade 3/4 hypertension, patients [2]: 16% | Incidence of hypertension [2]: 40%

Cc1ccc(Nc2nccc(N(C)c3ccc4c(C)n(C)nc4c3)n2)cc1S(N)(=O)=O [pazopanib]
Grade 3 hypertension, patients [2]: 4% | Grade 4 hypertension, patients [2]: 0% | Incidence of hypertension [2]: 40%

CNC(=O)c1cc(Oc2ccc(NC(=O)Nc3ccc(Cl)c(C(F)(F)F)c3)cc2)ccn1 [sorafenib]
progression-free survival [3]: 9.1 months | Grade 3/4 hypertension, patients [2]: 4–11% | Incidence of hypertension [2]: 17–29%

CCN(CC)CCNC(=O)c1c(C)[nH]c(/C=C2\C(=O)Nc3ccc(F)cc32)c1C [sunitinib]
Grade 3 hypertension, patients [2]: 8% | Grade 4 hypertension, patients [2]: 0% | Incidence of hypertension [2]: 24%

CO[C@H]1C[C@@H]2CC[C@@H](C)[C@@](O)(O2)C(=O)C(=O)N2CCCC[C@H]2C(=O)O[C@H]([C@H](C)C[C@@H]2CC[C@@H](OC(=O)C(C)(CO)CO)[C@H](OC)C2)CC(=O)[C@H](C)/C=C(\C)[C@@H](O)[C@@H](OC)C(=O)[C@H](C)C[C@H](C)/C=C/C=C/C=C/1C [temsirolimus]
AUC(0-t) ([1]; intravenous, 15 mg/week): 3190 ng·h/mL | Cmax ([1]; intravenous, 15 mg/week): 164 ng/mL | Tmax ([1]; intravenous, 15 mg/week): 2.32 h | AUC(0-t) ([1]; intravenous, 25 mg/week): 4240 ng·h/mL | Cmax ([1]; intravenous, 25 mg/week): 200 ng/mL | Tmax ([1]; intravenous, 25 mg/week): 1.81 h | Patients with ≥1 dose reduction/interruption of the drug [4]: 63% | Recommended phase II dose (RP2D), temsirolimus ([5]; intravenously, in combination with tivozanib): 25 mg/week | Fatigue, temsirolimus-related TEAE [6]: 51%

COc1cc2nccc(Oc3ccc(NC(=O)Nc4cc(C)on4)c(Cl)c3)c2cc1OC [tivozanib]
Hypertension, treatment-related event, patients ([7]; phase II, advanced RCC): 45% | Fatigue, treatment-related event, patients ([7]; tivozanib monotherapy, phase II, advanced RCC): 8% | Grade 3 hypertension, patients ([7]; tivozanib phase II trial): 11% | Grade 4 hypertension, patients ([7]; tivozanib phase II trial): 1% | progression-free survival [3]: 11.9 months | Tmax ([1]; oral, […]): 17.3 h | half-life [8]: ~ 4.5 d | Patients with ≥1 dose reduction/interruption of the drug [4]: 59% | Recommended phase II dose (RP2D), tivozanib ([5]; orally, 3 weeks on/1 week off, in combination with temsirolimus): 1.5 mg/day
